From patent publication EP4644396A1 (Visionpharma (Nantong) Co., Ltd, priority 2022, dated 2024) come the findings set out here.

For one test, the target named is T1, human TLR7 (Homo sapiens, UniProt Q9NYK1).
T1 sequence (Q9NYK1 27-1049): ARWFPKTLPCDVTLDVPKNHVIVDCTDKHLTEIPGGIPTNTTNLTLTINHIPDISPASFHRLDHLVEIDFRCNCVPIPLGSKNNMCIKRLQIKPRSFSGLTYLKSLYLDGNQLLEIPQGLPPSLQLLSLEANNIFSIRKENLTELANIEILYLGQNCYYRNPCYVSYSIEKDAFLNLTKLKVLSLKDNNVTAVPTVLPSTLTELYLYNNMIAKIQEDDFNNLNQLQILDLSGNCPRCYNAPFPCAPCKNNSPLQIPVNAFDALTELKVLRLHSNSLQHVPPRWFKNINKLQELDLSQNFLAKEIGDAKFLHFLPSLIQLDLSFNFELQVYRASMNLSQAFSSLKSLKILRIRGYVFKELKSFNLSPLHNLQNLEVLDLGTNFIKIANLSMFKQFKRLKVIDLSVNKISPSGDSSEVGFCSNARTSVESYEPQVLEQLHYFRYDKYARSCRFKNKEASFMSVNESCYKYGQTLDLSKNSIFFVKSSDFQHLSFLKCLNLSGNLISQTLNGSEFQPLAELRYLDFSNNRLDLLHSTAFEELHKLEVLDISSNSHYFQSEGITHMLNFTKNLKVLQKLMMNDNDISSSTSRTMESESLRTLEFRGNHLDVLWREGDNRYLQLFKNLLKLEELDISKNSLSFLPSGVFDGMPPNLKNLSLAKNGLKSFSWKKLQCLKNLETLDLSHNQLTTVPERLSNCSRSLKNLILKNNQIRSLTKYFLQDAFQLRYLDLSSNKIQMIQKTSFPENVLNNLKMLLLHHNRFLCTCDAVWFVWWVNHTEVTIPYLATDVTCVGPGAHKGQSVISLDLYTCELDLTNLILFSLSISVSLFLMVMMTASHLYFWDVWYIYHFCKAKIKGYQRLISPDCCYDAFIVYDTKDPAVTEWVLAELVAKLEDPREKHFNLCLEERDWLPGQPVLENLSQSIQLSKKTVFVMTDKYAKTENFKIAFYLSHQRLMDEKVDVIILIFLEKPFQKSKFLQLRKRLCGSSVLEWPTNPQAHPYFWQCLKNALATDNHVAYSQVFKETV
Description: HEK-Blue hTLR7 SEAP reporter gene inhibition assay. The test is classed as cell-based. How it is done:
(§1) HEK-Blue cells with stable expression of human TLR7 or TLR8 were used in the evaluation of inhibitory activity of compounds in the present invention against TLR7 or TLR8, by using its ability to induce the SEAP reporting gene under the control of the fusion of IFN-β minimum promoters into five NF-κB and ap-1 binding sites, as follows: hTLR7 HEK-Blue cells (Invivogen, 80, 000 cells per well) or hTLR8 HEK-Blue cells (60, 000 cells per well) were added to a 96-well cell culture plate. A solution of the testing compounds were added to each well, with the final concentration of tested compounds in the medium ranged from 0.001 to 36 µM and the culture was incubated for 15 minutes. M5049 was used as positive controls in the testing.
(§2) Then a TLR7 ligand (Gardiquimod, purchased from MedChemExpress, with final concentration of ligand in cell culture medium kept at 10 µM) or a TLR8 ligand (purchased from MedChemExpress with final concentration in cell culture media at 10 µM) and the culture was incubated for 20 hours. According to the manufacturer's instructions, a HEK-Blue reagent Quanti-blue (Invivogen) was used to detect the SEAP levels in cell cultures. The half […] concentration or IC50 was calculated by using GraphPad Prism. […] Table 1: Activities of examples in this invention to hTLR7/8 in HEK-Blue Cells
For orientation: Reporter assays use an easily measured gene product as a stand-in for the process of interest.

A further test addresses T2, human TLR8 (Homo sapiens, UniProt Q9NR97).
T2 construct: expressed in transfected cells
T2 sequence (Q9NR97 27-1041): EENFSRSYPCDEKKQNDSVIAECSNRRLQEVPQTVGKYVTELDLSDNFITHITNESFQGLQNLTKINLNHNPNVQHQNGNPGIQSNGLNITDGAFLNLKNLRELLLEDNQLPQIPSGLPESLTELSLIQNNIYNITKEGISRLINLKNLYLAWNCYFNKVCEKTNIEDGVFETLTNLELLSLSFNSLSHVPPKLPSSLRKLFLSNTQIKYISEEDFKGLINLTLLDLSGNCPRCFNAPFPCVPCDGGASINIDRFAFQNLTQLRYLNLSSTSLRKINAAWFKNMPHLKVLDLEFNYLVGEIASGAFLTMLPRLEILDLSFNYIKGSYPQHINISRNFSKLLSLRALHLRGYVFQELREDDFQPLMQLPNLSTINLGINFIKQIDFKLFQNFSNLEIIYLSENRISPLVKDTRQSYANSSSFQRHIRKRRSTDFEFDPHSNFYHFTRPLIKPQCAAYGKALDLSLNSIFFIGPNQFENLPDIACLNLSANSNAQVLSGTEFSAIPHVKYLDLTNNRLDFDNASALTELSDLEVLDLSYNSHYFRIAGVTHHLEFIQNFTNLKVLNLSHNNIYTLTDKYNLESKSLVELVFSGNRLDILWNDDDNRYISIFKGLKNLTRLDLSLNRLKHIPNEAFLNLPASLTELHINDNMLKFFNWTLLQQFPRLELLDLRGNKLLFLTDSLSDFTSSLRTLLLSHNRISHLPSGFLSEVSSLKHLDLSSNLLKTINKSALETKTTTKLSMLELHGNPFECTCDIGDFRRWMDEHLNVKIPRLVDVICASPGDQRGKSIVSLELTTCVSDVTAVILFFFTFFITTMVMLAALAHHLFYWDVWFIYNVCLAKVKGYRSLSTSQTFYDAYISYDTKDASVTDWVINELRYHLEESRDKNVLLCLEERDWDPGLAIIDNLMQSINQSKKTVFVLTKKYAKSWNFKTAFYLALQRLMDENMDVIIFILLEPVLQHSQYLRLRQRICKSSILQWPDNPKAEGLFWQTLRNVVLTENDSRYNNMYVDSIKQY
Briefly: HEK-Blue hTLR8 SEAP reporter gene inhibition assay. Type of test: cell-based. The settings on record: hTLR8 HEK-Blue cells, TLR8 ligand 10 µM, 20 hours, SEAP by Quanti-blue; class symbols; read-out: HEK-Blue hTLR8 IC50. As to the method:
as §1, §2

[1] abbreviates: hTLR7 HEK-Blue cells, TLR7 ligand Gardiquimod 10 µM, 20 hours, SEAP by Quanti-blue, class symbols, read-out: HEK-Blue hTLR7 IC50.

Molecules are shown by their SMILES. Read-outs that look alike come from different tables or passages of the source. Bounds are passed on as bounds.

A word on the IC50: it is the concentration that gives 50% inhibition.

In the case of `C[C@@H]1CN(c2ccc(C#N)n3ncc(F)c23)Cc2c3c(nn21)CCC(N)C3` (stereo partly drawn) [Example I-9, 4-((4R)-9-amino-4-methyl-3,4,7,8,9,10-hexahydropyrazino[1,2-b]indazol-2(1H)-yl)-3-fluoropyrazolo[1,5-a]pyridine-7-carbonitrile], at human TLR7 (setting [1]), the half-maximal inhibitory concentration (IC50) is greater than 0.05 µM.

For `CC(C)N1CCc2c(nn3c2CN(c2ccc(C#N)n4ncc(F)c24)C[C@H]3C)C1` [Example I-23, (R)-3-Fluoro-4-(8-isopropyl-4-methyl-3,4,7,8,9,10-hexahydropyrido[3',4':3,4]pyrazolo[1,5-a]pyrazin-2(1H)-yl)pyrazolo[1,5-a]pyridine-7-carbonitrile], the IC50 on human TLR7 (setting [1]) was greater than 0.05 µM. For `CCN1CCc2nn3c(c2C1)CN(c1ccc(C#N)n2ncc(F)c12)C[C@H]3C` [Example I-25, (R)-4-(2-ethyl-7-methyl-1,3,4,7,8,10-hexahydropyrido[4',3':3,4]pyrazolo[1,5-a]pyrazin-9(2H)-yl)-3-fluoropyrazolo[1,5-a]pyridine-7-carbonitrile], on human TLR7 (setting [1]), the IC50 was less than 0.05 µM. Still for that read-out and setting: with `C[C@@H]1CN(c2ccc(C#N)n3ncc(F)c23)Cc2c3c(nn21)CCN(C1CCC1)C3` [Example I-49, (R)-4-(2-cyclobutyl-7-methyl-1,3,4,7,8,10-hexahydropyrido[4',3':3,4]pyrazolo[1,5-a]pyrazin-9(2H)-yl)-3-fluoropyrazolo[1,5-a]pyridine-7-carbonitrile] the figure was greater than 0.05 µM; with `CC(C)N1CCc2nn3c(c2C1)CN(c1ccc(C#N)n2ncc(F)c12)C[C@H]3C` [Example I-53, (R)-3-Fluoro-4-(2-isopropyl-7-methyl-1,3,4,7,8,10-hexahydropyrido[4',3':3,4]pyrazolo[1,5-a]pyrazin-9(2H)-yl)pyrazolo[1,5-a]pyridine-7-carbonitrile], less than 0.05 µM. The compound `C[C@@H]1CN(c2ccc(C#N)n3ncc(F)c23)Cc2c3c(nn21)CCN(Cc1cn[nH]c1)C3` [Example I-54, (R)-4-(2-((1H-Pyrazole-4-yl)methyl) -7-methyl-1,3,4,7,8,10-hexahydropyridine[4 ', 3 ': 3, 4]pyrazole [1,5-a]pyrazine-9 (2H) -yl) -3-fluoropyrazole [1,5-a] pyridine-7-nitrile] came in with an IC50 on human TLR7 (HEK-Blue hTLR7 IC50 (µM)) of less than 0.05 µM.

Regarding `C[C@@H]1CN(c2ccc(C#N)n3ncc(F)c23)Cc2c3c(nn21)CCN(CC(F)F)C3` [Example I-56, (R)-4-(2-(2,2-difluoroethyl) -7-methyl-1,3,4,7,8, 10-hexahydropyridine [4 ', 3 ': 3, 4]pyrazole [1,5-a]pyrazine-9 (2H) -yl) -3-fluoropyrazole [1,5-a] pyridine-7-nitrile], on human TLR7 (HEK-Blue hTLR7 IC50 (µM)), the IC50 was greater than 0.05 µM. The same measure, in the same setting: in the case of `C[C@@H]1CN(c2ccc(C#N)n3ncc(F)c23)Cc2c3c(nn21)CCN(Cc1ccn[nH]1)C3` [Example I-62] it was greater than 0.05 µM. Turning to `C[C@@H]1CN(c2ccc(C#N)n3ncc(F)c23)Cc2c3c(nn21)CCN(Cc1cnn(C)c1)C3` [Example I-67, (R)-3-Fluoro-4-(7-methyl-2-((1-methyl-1H-pyrazol-4-yl)methyl)-1,3,4,7,8,10-hexahydropyrido[4',3':3,4]pyrazolo[1,5-a]pyrazin-9(2H)-yl)pyrazolo[1,5-a]pyridine-7-carbonitrile], the half-inhibitory concentration (IC50) on human TLR7 (setting [1]) is greater than 0.05 µM. Same read-out and setting: with `C[C@@H]1CN(c2ccc(C#N)n3ncc(F)c23)Cc2c3c(nn21)CCC(C)(N)C3` (stereo partly drawn) [Example I-80, 4-((4R)-9-Amino-4,9-dimethyl-3,4,7,8,9,10-hexahydropyrazino[1,2-b]indazol-2(1H)-yl)-3-fluoropyrazolo[1,5-a]pyridine-7-carbonitrile] the figure was greater than 0.05 µM; with `C[C@@H]1CN(c2ccc(C#N)n3ncc(F)c23)Cc2c3c(nn21)CN[C@H](CC#N)C3` [Example I-86, 4-((4R,9S)-9-(cyanomethyl)-4-methyl-3,4,7,8,9,10-hexahydropyrido[3',4':3,4]pyrazolo[1,5-a]pyrazin-2(1H)-yl)-3-fluoropyrazolo[1,5-a]pyridine-7-carbonitrile], less than 0.05 µM. Still for that read-out and setting: with `CNC(=O)CN1Cc2nn3c(c2C[C@@H]1C)CN(c1ccc(C#N)n2ncc(F)c12)C[C@H]3C` [Example I-101, 2-((4R,9S)-2-(7-cyanide-3-fluoropyridox and [1,5-a]pyridox-4-base)-4,9-dimethyl-1,2,3,4,9, 10-hydropyridox [3 ', 4 ': 3, 4]pyrazolo [1,5-a]pyrazine-8 (7 H) -yl)-N-methyl acetamide] the figure was greater than 0.05 µM; with `C[C@@H]1CN(c2ccc(C#N)n3ncc(F)c23)Cc2c3c(nn21)CN(CC(=O)N(C)C)[C@@H](C)C3` [Example I-102, 2-((4R,9S)-2-(7-cyano-3-fluoropyrazolo[1,5-a]pyridin-4-yl)-4,9-dimethyl-1,2,3,4,9,10-hexahydropyrido[3',4':3,4]pyrazolo[1,5-a]pyrazin-8(7H)-yl)-N,N-dimethylacetamide], less than 0.05 µM. `C[C@@H]1CN(c2ccc(C#N)n3ncc(F)c23)Cc2c3c(nn21)CN(CC(=O)N1CC2(COC2)C1)[C@@H](C)C3` [Example I-112, 4-((4R, 9S) -4,9-dimethyl-8-(2-oxydioxy-2-(2-oxytrioxy-6-nitrous [3.3]helium-6-ethyl)ethyl) -3,4,7,8,9, 10-hydropyridine [3 ', 4 ': 3, 4]pyrazole [1,5-a]pyrazine-2 (1 H) - yl) -3-fluoropyrazole [1,5-a] pyridine-7-nitrile] gave an IC50 against human TLR7 (HEK-Blue hTLR7 IC50 (µM)) greater than 0.05 µM. On the same count and under the same terms, in the case of `C[C@@H]1CN(c2ccc(C#N)n3ncc(F)c23)Cc2c3c(nn21)CN(CC(=O)N1CCNCC1)[C@@H](C)C3` [Example I-113] it was less than 0.05 µM. As for `C[C@@H]1CN(c2ccc(C#N)n3ncc(F)c23)Cc2c3c(nn21)CC(N)CCC3` (stereo partly drawn) [Example I-214, 4-((4R)-8-amino-4-methyl-1,3,4,7,8,9,10,11-octahydro-2H-cyclohepta[3,4]pyrazolo[1,5-a]pyrazin-2-yl)-3-fluoropyrazolo[1,5-a]pyridine-7-carbonitrile], the IC50 at human TLR8 was less than 100 nM.
